Patent US10857113B2, “Bezafibrate for the treatment of cancer” (Cipla Limited, priority 2016, dated 2020)
pIC50: −log10 of the molar value. Where two headings read alike, the source gives them in different places.

Tests used:
Assay type in all cases: cell-based
[1] = tested on: 786-O; test: In vitro 2D assay (CellTiter-Blue); conditions: Homo sapiens, 786-0, 2D model, 96 hour treatment
Source text: (§1) Cell lines RXF 1183L, RXF 1220L, RXF 1781L, RXF 393L and RXF 486L were established at Oncotest from the corresponding human patient-derived xenograft. The cell lines 786-O, A-498, Caki-1 and SN12C were purchased from NCI (National Cancer Institute, Bethesda, Md., USA). ACHN was purchased from ECACC (European Collection of Cell Cultures, Salisbury, UK). Authenticity of cell lines was confirmed at the DSMZ by STR (short tandem repeat) analysis, a PCR based DNA-fingerprinting methodology.
(§2) Cell lines were routinely passaged once or twice weekly and maintained in culture for up to 20 passages. All cells were grown at 37° C. in a humidified atmosphere with 5% CO2 in RPMI 1640 medium (25 mM HEPES, with L-glutamine, # FG1385, Biochrom, Berlin, Germany) supplemented with 10% (v/v) fetal calf serum (Sigma, Taufkirchen, Germany) and 0.1 mg/mL gentamicin (Life Technologies, Karlsruhe, Germany).
(§3) Bezafibrate was dissolved at a concentration of 100 mM in 100% Methanol and next 1:5 diluted with cell culture media (20 mM, 20% Methanol). Starting with this solution, serial dilutions (1:1.6) were prepared with cell culture medium. Next, 150 μL of the serial dilutions were transferred to the assay plates upon removing the cell culture media of each well (complete change of medium on assay plates). Thus the final test concentrations were 10,240, 6,400, 4,000, 2,500, 1,563, 977, 610, and 381 μM. The maximum methanol concentrations were 6% and 10%. No precipitation was observed.
(§4) Cells were harvested from exponential phase cultures, counted and plated in 96-well flat-bottom microtiter plates at a cell density of 4,000-12,000 cells/well depending on the cell line's growth rate. After a 24 hour recovery period to allow the cells to resume exponential growth, test compounds were added. Compounds were applied at 8 to 10 concentrations in duplicate and treatment continued for 96 hour. After 96 hour treatment of cells, 20 μL/well CellTiter-Blue® reagent was added. Following an incubation period of up to four hours, fluorescence (FU) was measured by using the Enspire Multimode Plate Reader (excitation λ=531 nm, emission λ=615 nm).
(§5) For calculations, the mean values of duplicate/quadruplicate (untreated control) data were used. Sigmoidal concentration-response curves were fitted to the data points (T/C values) obtained for each cell line using 4 parameter non-linear curve fit.

[2] = tested on: A-498; test: In vitro 2D assay (CellTiter-Blue); conditions: Homo sapiens, A498, 2D model, 96 hour treatment
Source text: as §1, §2, §3, §4, §5

[3] = tested on: ACHN; test: In vitro 2D assay (CellTiter-Blue); conditions: Homo sapiens, 2D model
Source text: as §1, §2, §3, §4, §5

[4] = tested on: Caki-1; test: In vitro 2D assay (CellTiter-Blue); conditions: Homo sapiens, 2D model, 96 hour treatment
Source text: as §1, §2, §3, §4, §5

[5] = tested on: RXF 1183L; test: In vitro 2D assay (CellTiter-Blue); conditions: Homo sapiens, 2D model, 96 hour treatment
Source text: as §1, §2, §3, §4, §5

[6] = tested on: RXF 1220L; test: In vitro 2D assay (CellTiter-Blue); conditions: Homo sapiens, 2D model
Source text: as §1, §2, §3, §4, §5

[7] = tested on: RXF 1781L; test: In vitro 2D assay (CellTiter-Blue); conditions: Homo sapiens, 2D model, 96 hour treatment
Source text: as §1, §2, §3, §4, §5

[8] = tested on: RXF 393L; test: In vitro 2D assay (CellTiter-Blue); conditions: Homo sapiens, 2D model, 96 hour treatment
Source text: as §1, §2, §3, §4, §5

[9] = tested on: RXF 486L; test: In vitro 2D assay (CellTiter-Blue); conditions: Homo sapiens, 2D model, 96 hour treatment
Source text: as §1, §2, §3, §4, §5

[10] = tested on: SN12C; test: In vitro 2D assay (CellTiter-Blue); conditions: Homo sapiens, 2D model, 96 hour treatment
Source text: as §1, §2, §3, §4, §5

[11] = tested on: human tumor cell models for RCC; test: In vitro 2D assay, all cell lines tested; conditions: 2D model; for pIC50: Homo sapiens
Source text: as §1, §2
as §3, with “Thus the final test concentrations were 10,240, 6,400, 4,000, 2,500, 1,563, 977, 610, and 381 μM.” left out
as §4, §5

[12] = tested on: 786-O; test: In vitro 3D clonogenic assay; conditions: Homo sapiens, 786-0, 3D model, colony formation, 8 to 13 days continuous exposure
Description: (§6) Cell lines were routinely passaged one or twice weekly. All cells were grown at 37° C. in a humidified atmosphere with 5% CO2 in RPMI 1640 medium (Biochrom) supplemented with 10% (v/v) fetal calf serum and 0.1 mg/mL gentamicin. The percentage of viable cells was determined in a Neubauer-hemocytometer using trypan blue exclusion.
(§7) Tumor xenografts (patient-derived, as well as cell line-derived xenografts) were passaged as subcutaneous xenografts in NMRI nu/nu mice. At a tumor volume of 400-1,000 mm^3 tumor-bearing mice were sacrificed and tumors were collected under sterile conditions without delay according to the relevant Oncotest SOPs and the relevant animal welfare guidelines published by the FELASA and the GV-SOLAS. Tumors were mechanically disaggregated and subsequently incubated with an enzyme cocktail consisting of collagenase type IV (41 U/mL), DNase I (125 U/mL), hyaluronidase type III (100 U/mL), and dispase II (1.0 U/mL) in RPMI 1640 medium (Life Technologies) at 37° C. for 60-120 minutes. Cells were passed through sieves of 100 μm and 40 μm mesh size (Cell Strainer, BD Falcon™), and washed with RPMI 1640 medium. The percentage of viable cells was determined in a Neubauer-hemocytometer using trypan blue exclusion. Aliquots of the cells were frozen down, and stored in liquid nitrogen. On each day of an experiment, a frozen aliquot of tumor cells was thawed and used for preparation of assay plates.
(§8) The clonogenic assay was carried out in a 96 well plate format using ultra low attachment plates. For each test, cells were prepared as described above and assay plates were prepared as follows: each test well contained a layer of semi-solid medium with tumor cells (50 and a second layer of medium supernatant with or without test compound (100 The cell layer consisted of 2.5·10^3 to 1·10^4 tumor cells per well, which were seeded in 50 μL/well cell culture medium (IMDM, supplemented with 20% (v/v) fetal calf serum, 0.01% (w/v) gentamicin, and 0.4% (w/v) agar). After 24 hours the test compounds were added after serial dilution in cell culture medium, and left on the cells for the duration of the experiment (continuous exposure, 100 μl drug overlay). Every plate included six untreated control wells and drug-treated groups in duplicate at 9 concentrations. Cultures were incubated at 37° C. and 7.5% CO2 in a humidified atmosphere for 8 to 13 days and monitored closely for colony growth using an inverted microscope. Within this period, ex vivo tumor growth led to the formation of colonies with a diameter of >50 μm. At the time of maximum colony formation, counts were performed with an automatic image analysis system (CellInsight NXT, Thermo Scientific). 48 hours prior to evaluation, vital colonies were stained with a sterile aqueous solution of 2-(4-iodophenyl)-3-(4-nitrophenyl)-5-phenyltetrazolium chloride (1 mg/ml, 100 μl/well).

[13] = tested on: A-498; test: In vitro 3D clonogenic assay; conditions: Homo sapiens, A498, 3D model, colony formation, 8 to 13 days continuous exposure
Description: as §6, §7, §8

[14] = tested on: ACHN; test: In vitro 3D clonogenic assay; conditions: Homo sapiens, 3D model, colony formation, 8 to 13 days continuous exposure, read-out: Absolute IC50
Description: as §6, §7, §8

[15] = second run 381 to 10,240 μM, read-out: Absolute IC50
[16] = 96 hour treatment, read-out: Relative IC50
[17] = 96 hour treatment, second run 381 to 10,240 μM, read-out: Absolute IC50
[18] = first run 93 to 4,000 μM, read-out: IC50

pIC50 [1, 15]: 3.10
pIC50 ([1]; read-out: Relative IC50): 2.97
pIC50 [3, 16]: 2.95
pIC50 [3, 17]: 2.98
pIC50 [3, 18]: 2.97
IC50 values, overall anti-cancer activity ([11]; overall statement): low mM range
pIC50 ([11]; geometric mean over 10 cell lines, second run 381 to 10,240 μM, read-out: Geometric mean absolute IC50): 2.91
pIC50 ([11]; geometric mean over 10 cell lines, read-out: Geometric mean relative IC50): 2.81
pIC50 ([11]; first run 93 to 4,000 μM, read-out: Geometric mean absolute IC50): 2.75
pIC50 ([12]; read-out: Absolute IC50): 2.87
pIC50 ([12]; read-out: Relative IC50): 2.83
pIC50 ([13]; read-out: Absolute IC50): 3.12
pIC50 ([13]; read-out: Relative IC50): 3.11
pIC50 [14]: 2.99
SMILES: CC(C)(Oc1ccc(CCNC(=O)c2ccc(Cl)cc2)cc1)C(=O)O [Bezafibrate]
pIC50 [2, 15]: 2.67
pIC50 ([2]; read-out: Relative IC50): 2.64
pIC50 ([4]; read-out: Relative IC50): 2.85
pIC50 [4, 15]: 2.91
pIC50 [5, 15]: 3.02
pIC50 ([5]; read-out: Relative IC50): 2.98
pIC50 [6, 17]: 2.71
pIC50 [6, 16]: 2.68
pIC50 [6, 18]: 2.47
pIC50 ([7]; read-out: Relative IC50): 2.71
pIC50 [7, 15]: 2.73
pIC50 [8, 15]: 2.98
pIC50 ([8]; read-out: Relative IC50): 2.78
pIC50 ([9]; read-out: Relative IC50): 2.88
pIC50 [9, 15]: 3.01
pIC50 ([10]; read-out: Relative IC50): 2.92
pIC50 [10, 15]: 3.02
